Laboratory results reported in patent US9187728B2, “Method for producing hematopoietic stem cells” (Nissan Chemical Industries, Ltd., priority 2010, dated 2015).

Tests used:
[1] = tested on: SCID-repopulating cells (SRC); assay: Transplantation of cell culture into immunodeficient (NOD/SCID) mice (SRC assay); type: in vivo, human; conditions: CD34+ cells cultured with 10 μM, transplanted into irradiated NOD/SCID mice, 8 weeks; vs cells cultured without compound (FIG. 5)
Procedure: Human cord blood-derived CD34^+ cells cultured in the presence of 10 μM garcinol (COSMO BIO) in terms of final concentration or in the absence of garcinol (i.e., in a culture medium containing 0.1% (v/v) dimethyl sulfoxide) in the same manner as in Assay Example 1 were transplanted into at least five 7- to 8-week-old NOD/SCID mice by tail vein injection at 4 to 5×10^4 cells/mouse in terms of the initial number of CD34^+ cells after a sublethal dose of irradiation (2.5 Gy). Eight weeks after the transplantation, the mice were killed, and the bone marrow cells were collected from both thighbones. Subsequently, the bone marrow cells were stained with a human CD45 antibody (APC, Becton, Dickinson and Company), then washed with PBS(−) containing 2%(v/v) FBS and stained with propidium iodide (Sigma-Aldrich Japan) added to a final concentration of 5 μg/mL. The stained cells were analyzed by flow cytometry to determined the proportion of human CD45^+ cells in the bone marrow cells.

HPP-CFC colonies = assay: Expansion of HPP-CFU using human cord blood-derived CD34+ cells (blood cell colony forming assay); type: cell-based; conditions: then 500 cells/dish MethoCult GF H4435, 12 days, None = 19
Procedure: The effects of garcinol and isogarcinol as compounds of the present invention on hematopoietic progenitor cells were measured by blood cell colony forming assay. The liquid cell cultures obtained in Assay Example 1 were poured into 3.5-cm Petri dishes with MethoCult GF H4435 culture medium (StemCell Technologies) at 500 cells/dish and incubated in a CO2 incubator (5% CO2, 37° C.) for 12 days. The number of HPP-CFC colonies in each plate was counted under a microscope routinely. The assay was carried out at least in duplicate, and the numbers of HPP-CFC colonies were averaged.

CD34+CD38- cells = assay: Expansion of CD34+CD38- cells using human cord blood-derived CD34+ cells (liquid culture, flow cytometry); type: cell-based; conditions: for expansion activity on CD34+CD38- cells: 7 days; for expansion activity on hematopoietic stem cells: general statement, compared with the other specific compounds
Procedure: (§1) Human cord blood-derived CD34^+ cells were purchased from Lonza and plated on a 24-well plate (Corning) (10000 cells/1 mL/well). As the culture medium, StemSpan SFEM (StemCell Technologies) containing 100 ng/mL SCF (Wako Pure Chemical Industries) and 20 ng/mL TPO (PeproTech) in terms of final concentration was used, and garcinol (COSMO BIO) dissolved in dimethyl sulfoxide was added to the medium in an amount of 0.1% (v/v) to a final concentration of 5 or 10 μM. Similarly, isogarcinol (Reference Synthetic Example 1) dissolved in dimethyl sulfoxide was added to the medium in an amount of 0.1% (v/v) to a final concentration of 2 or 5 μM. As a negative control, the medium containing 0.1% (v/v) dimethyl sulfoxide was used.
After the cells were incubated in liquid culture at 37° C. for 7 days in a CO2 incubator (5% CO2), the number of viable cells was counted by trypan blue assay. The number of CD34^+CD38^− cells was calculated as follows. After the incubation, the cells in the liquid culture was stained with a CD34 antibody (APC, Becton, Dickinson and Company) and a CD38 antibody (P E, Becton, Dickinson and Company), then washed with PBS(−) containing 2% (v/v) FBS and stained with propidium iodide (Sigma-Aldrich Japan) added to a final concentration of 5 μg/mL. The stained cells were analyzed with a BD FACSCANTO™ II flow cytometer (Becton, Dickinson and Company) to determined the proportions of CD34^+ cells and CD34^+CD38^− cells, which was multiplied by the number of viable cells to calculate the numbers of CD34^+ cells and CD34^+CD38^− cells.
Human cord blood-derived CD34^+ cells purchased from the same supplier as in Assay Example 1 were plated on a 24-well plate (Corning) (10000 cells/1 mL/well). As the culture medium, StemSpan SFEM (StemCell Technologies) containing 100 ng/mL SCF (Wako Pure Chemical Industries) and 20 ng/mL TPO (PeproTech) in terms of final concentration was used, and O-monomethylisogarcinol (Reference Synthetic Example 2) dissolved in dimethyl sulfoxide was added to the medium to a final concentration of 1 or 2 μM.
(§2) After the cells were incubated in liquid culture at 37° C. for 7 days in a CO2 incubator (5% CO2), the number of viable cells was counted by trypan blue assay. The number of CD34^+CD38^− cells was calculated in the same manner as in Assay Example 1.
Human cord blood-derived CD34^+ cells purchased from the same supplier as in Assay Example 1 were plated on a 24-well plate (Corning) (10000 cells/1 mL/well). […]

CD34+ cells = assay: Expansion of CD34+ cells using human cord blood-derived CD34+ cells (liquid culture, flow cytometry); type: cell-based; conditions: Assay Example 2; 1 or 2 μM; 100 ng/mL SCF + 20 ng/mL TPO; 7 days
Procedure: as §1, with “As a negative control, the medium containing 0.1% (v/v) dimethyl sulfoxide was used.” left out
After the cells were incubated in liquid culture at 37° C. for 7 days in a CO2 incubator (5% CO2), the number of viable cells was counted by trypan blue assay. The number of CD34^+CD38^− cells was calculated as follows. […] The stained cells were analyzed with a BD FACSCANTO™ II flow cytometer (Becton, Dickinson and Company) to determined the proportions of CD34^+ cells and CD34^+CD38^− cells, which was multiplied by the number of viable cells to calculate the numbers of CD34^+ cells and CD34^+CD38^− cells. […]
as §2

| SMILES | SRC expanding effect (proportion of human CD45+ cells in bone marrow) [1] | Number of HPP-CFC colonies (HPP-CFC colonies; 10 μM in 7-day liquid culture (SCF+TPO)) | expansion activity on CD34+CD38- cells (CD34+CD38- cells; Assay Example 3, 10 μM, in the presence of SCF, SCF and TPO, or SCF, TPO and FL, compared with absence of the compound (FIG. 4)) | expansion activity on hematopoietic stem cells (CD34+CD38- cells) | expansion activity on CD34+CD38- cells (CD34+CD38- cells; Assay Example 2, 1 or 2 μM, 100 ng/mL SCF + 20 ng/mL TPO, vs absence of compound (FIG. 3)) | expansion activity on CD34+ cells (CD34+ cells) | Number of HPP-CFC colonies (HPP-CFC colonies; 5 μM in 7-day liquid culture (SCF+TPO)) |
| --- | --- | --- | --- | --- | --- | --- | --- |
| C=C(C)[C@@H](CC=C(C)C)C[C@@]12C[C@@H](CC=C(C)C)C(C)(C)[C@@](CC=C(C)C)(C(=O)C(C(=O)c3ccc(O)c(O)c3)=C1O)C2=O [garcinol, Garcinol] | excellent SRC expanding effect | 35 | higher expansion activity | especially strong expansion activity |  |  |  |
| COc1ccc(C(=O)C2=C3OC(C)(C)[C@@H](CC=C(C)C)C[C@@]34C[C@@H](CC=C(C)C)C(C)(C)[C@@](CC=C(C)C)(C2=O)C4=O)cc1O [O-monomethylisogarcinol, O-Monomethylisogarcinol] |  |  |  |  | excellent expansion activity | excellent expansion activity |  |
| CC(C)=CC[C@H]1C[C@@]23C[C@@H](CC=C(C)C)C(C)(C)[C@@](CC=C(C)C)(C(=O)C(C(=O)c4ccc(O)c(O)c4)=C2OC1(C)C)C3=O [isogarcinol, Isogarcinol] |  |  |  | especially strong expansion activity |  |  | 42 |
